Patent US9089603B2, “Fluorescent imaging with substituted cyanine dyes” (LI-COR, INC., priority 2010, dated 2015)

How the values were obtained:
[1] = Absorption wavelength of the cyanine dyes in methanol (halo substitution effect); format: physicochemical
From the text: [table] Design Principle: We analyzed the properties of a dye scaffold and related compounds and the corresponding substitution effects on the excitation and emission wavelengths. The small size of fluorine is unlikely to produce steric effects, therefore, we explored the electronic effects of fluorine and related substitutions. The Hammett equation (σ-value) is an important tool to understand the electronic effects of the substituents, therefore, we explored the correlation of the wavelength (λMeOH) and the σ-value (vide infra): […]

[2] = In vivo clearance imaging in nude mice (Pearl Impulse); settings: 1 nmole; for Total (signal): 800 channel
Method: Two nude mice were injected with 1 nmole of either compound 16 or IRDye 800CW carboxylate. They were then imaged longitudinally over the next 24 h with the Pearl Impulse imaging system. The results are presented in FIG. 9: in vivo clearance in nudes (FIG. 9A), whole body dorsal views (FIG. 9B), and the rate of clearance (FIG. 9C). The clearance data is presented below in Table 4.

Row | Molecule | λMeOH ([1]; Table 5) [nm] | λMeOH ([1]; Table 2) [nm] | other results
1 | CCCCOc1c(F)c(F)c(C2=C(/C=C/C3=[N+](CCCCCC(=O)O)c4ccc(S(=O)(=O)[O-])cc4C3(C)C)CCC/C2=C\C=C2\N(CCCCS(=O)(=O)[O-])c3ccc(S(=O)(=O)[O-])cc3C2(C)C)c(F)c1F.[Na+].[Na+] | 790 | – | –
2 | CC1(C)C(/C=C/C2=C(c3cccc(CCCCC(=O)O)c3)C(=C/C=C3/N(CCCCS(=O)(=O)[O-])c4ccc(S(=O)(=O)[O-])cc4C3(C)C)/CCC2)=[N+](CCCCS(=O)(=O)[O-])c2ccc(S(=O)(=O)[O-])cc21.[Na+].[Na+].[Na+] [Compound 11] | – | 766 | –
3 | IRDye 800CW carboxylate [reference compound] | – | – | Total (signal) ([2]; 3 Min): 114295.49; Total (signal) ([2]; 19 Min): 306555.97; Total (signal) ([2]; 47 Min): 291381.69; Total (signal) ([2]; 74 Min): 272408.13; Total (signal) ([2]; 192 Min): 154950.09; Total (signal) ([2]; 278 Min): 102698.54; Total (signal) ([2]; 1439 Min): 2336.87; Clearance in vivo ([2]; nude mice, imaged over 24 h): good clearance
4 | CC1(C)C(/C=C/C2=C(c3ccc(C(=O)O)c(F)c3F)C(=C/C=C3/N(CCCCS(=O)(=O)[O-])c4ccc(S(=O)(=O)[O-])cc4C3(C)C)/CCC2)=[N+](CCCCS(=O)(=O)[O-])c2ccc(S(=O)(=O)[O-])cc21.[Na+].[Na+].[Na+] [Compound 64] | – | 772 | –
5 | CC1(C)C(/C=C/C2=C(c3c(F)cccc3F)C(=C/C=C3/N(CCCCS(=O)(=O)[O-])c4ccc(S(=O)(=O)[O-])cc4C3(C)C)/CCC2)=[N+](CCCCCC(=O)O)c2ccc(S(=O)(=O)[O-])cc21.[Na+].[Na+] | 782 | – | –
6 | CC1(C)C(/C=C/C2=C(c3c(Cl)cccc3Cl)C(=C/C=C3/N(CCCCS(=O)(=O)[O-])c4ccc(S(=O)(=O)[O-])cc4C3(C)C)/CCC2)=[N+](CCCCCC(=O)O)c2ccc(S(=O)(=O)[O-])cc21.[Na+].[Na+] | 782 | – | –
7 | CC1(C)C(/C=C/C2=C(c3ccccc3F)C(=C/C=C3/N(CCCCS(=O)(=O)[O-])c4ccc(S(=O)(=O)[O-])cc4C3(C)C)/CCC2)=[N+](CCCCS(=O)(=O)[O-])c2ccc(S(=O)(=O)[O-])cc21.[Na+].[Na+].[Na+] [Compound 12] | – | 772 | –
8 | CC1(C)C(/C=C/C2=C(c3ccccc3F)C(=C/C=C3/N(CCCCS(=O)(=O)[O-])c4ccc(S(=O)(=O)[O-])cc4C3(C)C)/CCC2)=[N+](CCCCCC(=O)O)c2ccc(S(=O)(=O)[O-])cc21.[Na+].[Na+] | 772 | – | –
9 | COc1cc(F)c(C2=C(/C=C/C3=[N+](CCCCCC(=O)O)c4ccc(S(=O)(=O)[O-])cc4C3(C)C)CCC/C2=C\C=C2\N(CCCCS(=O)(=O)[O-])c3ccc(S(=O)(=O)[O-])cc3C2(C)C)c(F)c1.[Na+].[Na+] | 772 | – | –
10 | CCCCOc1ccc(F)c(C2=C(/C=C/C3=[N+](CCCCS(=O)(=O)[O-])c4ccc(S(=O)(=O)[O-])cc4C3(C)C)CCC/C2=C\C=C2\N(CCCCS(=O)(=O)[O-])c3ccc(S(=O)(=O)[O-])cc3C2(C)C)c1F.[Na+].[Na+].[Na+] [Compound 22] | – | 783 | –
11 | CC1(C)C(/C=C/C2=C(c3ccc(CCC(=O)O)c(F)c3F)C(=C/C=C3/N(CCCCS(=O)(=O)[O-])c4ccc(S(=O)(=O)[O-])cc4C3(C)C)/CCC2)=[N+](CCCCS(=O)(=O)[O-])c2ccc(S(=O)(=O)[O-])cc21.[Na+].[Na+].[Na+] [Compound 65] | – | 776 | –
12 | CC1(C)C(/C=C/C2=C(c3c(F)cc(F)cc3F)C(=C/C=C3/N(CCCCS(=O)(=O)[O-])c4ccc(S(=O)(=O)[O-])cc4C3(C)C)/CCC2)=[N+](CCCCCC(=O)O)c2ccc(S(=O)(=O)[O-])cc21.[Na+].[Na+] | 785 | – | –
13 | CCCCOc1c(F)c(F)c(C2=C(/C=C/C3=[N+](CCCCS(=O)(=O)[O-])c4ccc(S(=O)(=O)[O-])cc4C3(C)C)CCC/C2=C\C=C2\N(CCCCS(=O)(=O)[O-])c3ccc(S(=O)(=O)[O-])cc3C2(C)C)c(F)c1F.[Na+].[Na+].[Na+] [Compound 24] | – | 790 | –
14 | CC1(C)C(/C=C/C2=C(c3ccc(C(=O)NCCCCCC(=O)O)c(F)c3F)C(=C/C=C3/N(CCCCS(=O)(=O)[O-])c4ccc(S(=O)(=O)[O-])cc4C3(C)C)/CCC2)=[N+](CCCCS(=O)(=O)[O-])c2ccc(S(=O)(=O)[O-])cc21.[Na+].[Na+].[Na+] [Compound 66] | – | 773 | –
15 | CC1(C)C(/C=C/C2=C(c3c(F)cc(C(=O)O)cc3F)C(=C/C=C3/N(CCCCS(=O)(=O)[O-])c4ccc(S(=O)(=O)[O-])cc4C3(C)C)/CCC2)=[N+](CCCCS(=O)(=O)[O-])c2ccc(S(=O)(=O)[O-])cc21.[Na+].[Na+].[Na+] [Compound 26] | – | 782 | –
16 | CCCCOc1c(F)cc(F)c(C2=C(/C=C/C3=[N+](CCCCS(=O)(=O)[O-])c4ccc(S(=O)(=O)[O-])cc4C3(C)C)CCC/C2=C\C=C2\N(CCCCS(=O)(=O)[O-])c3ccc(S(=O)(=O)[O-])cc3C2(C)C)c1F.[Na+].[Na+].[Na+] [Compound 23] | – | 789 | –
17 | CC1(C)C(/C=C/C2=C(c3c(F)cc(C(=O)O)cc3F)C(=C/C=C3/N(CCCCS(=O)(=O)[O-])c4ccc(S(=O)(=O)[O-])cc4C3(C)C)/CCC2)=[N+](CCCCCC(=O)O)c2ccc(S(=O)(=O)[O-])cc21.[Na+].[Na+] | 782 | – | –
18 | CCCCOc1c(F)cc(F)c(C2=C(/C=C/C3=[N+](CCCCCC(=O)O)c4ccc(S(=O)(=O)[O-])cc4C3(C)C)CCC/C2=C\C=C2\N(CCCCS(=O)(=O)[O-])c3ccc(S(=O)(=O)[O-])cc3C2(C)C)c1F.[Na+].[Na+] | 789 | – | –
19 | CC1(C)C(/C=C/C2=C(c3c(Cl)cccc3Cl)C(=C/C=C3/N(CCCS(=O)(=O)[O-])c4ccc(S(=O)(=O)[O-])cc4C3(C)C)/CC(C(=O)O)C2)=[N+](CCCS(=O)(=O)[O-])c2ccc(S(=O)(=O)[O-])cc21.[Na+].[Na+].[Na+] (stereo not shown) [Compound 15] | – | 782 | –
20 | CC1(C)C(/C=C/C2=C(c3cccc(F)c3F)C(=C/C=C3/N(CCCCS(=O)(=O)[O-])c4ccc(S(=O)(=O)[O-])cc4C3(C)C)/CC(C(=O)O)C2)=[N+](CCCCS(=O)(=O)[O-])c2ccc(S(=O)(=O)[O-])cc21.[Na+].[Na+].[Na+] (stereo not shown) [Compound 63a] | – | 770 | –
21 | CC1(C)C(/C=C/C2=C(c3c(F)cc(F)cc3F)C(=C/C=C3/N(CCCCS(=O)(=O)[O-])c4ccc(S(=O)(=O)[O-])cc4C3(C)C)/CCC2)=[N+](CCCCS(=O)(=O)[O-])c2ccc(S(=O)(=O)[O-])cc21.[Na+].[Na+].[Na+] [Compound 14] | – | 785 | –
22 | COc1cc(F)c(C2=C(/C=C/C3=[N+](CCCCS(=O)(=O)[O-])c4ccc(S(=O)(=O)[O-])cc4C3(C)C)CCC/C2=C\C=C2\N(CCCCS(=O)(=O)[O-])c3ccc(S(=O)(=O)[O-])cc3C2(C)C)c(F)c1.[Na+].[Na+].[Na+] [Compound 21] | – | 783 | –
23 | CC1(C)C(/C=C/C2=C(c3c(F)cccc3F)C(=C/C=C3/N(CCCCS(=O)(=O)[O-])c4ccc(S(=O)(=O)[O-])cc4C3(C)C)/CCC2)=[N+](CCCCS(=O)(=O)[O-])c2ccc(S(=O)(=O)[O-])cc21.[Na+].[Na+].[Na+] [Compound 13] | – | 782 | –
24 | CCCCOc1ccc(F)c(C2=C(/C=C/C3=[N+](CCCCCC(=O)O)c4ccc(S(=O)(=O)[O-])cc4C3(C)C)CCC/C2=C\C=C2\N(CCCCS(=O)(=O)[O-])c3ccc(S(=O)(=O)[O-])cc3C2(C)C)c1F.[Na+].[Na+] | 779 | – | –
